From patent publication US6500846B1, “CDK inhibitors having flavone structure” (LG Chemical, Ltd., priority 1998, dated 2002)

Experiments:
CDK2/cyclin A = biological target: T1, CDK2/cyclin A (Homo sapiens, UniProt P24941); assay: Inhibitory activity against CDK2/cyclin A enzyme (GST-RB phosphorylation, P32-γ-ATP, scintillation counting); format: biochemical; conditions: 100 μM ATP, GST-RB substrate, 30° C. 30 minutes
T1 construct: made in house; host or cells: insect cells infected with baculoviruses
Protocol: (§1) Analysis of inhibitory activity against CDK2/cyclin A and CDK4/cyclin D1 enzyme.
(§2) The inhibitory activity against CDK2 is measured by referring to Kitagawa, M. et al., Oncogene 9:2549, 1994 and the inhibitory activity against CDK4 is measured by referring to Carlson, B. A. et al., Cancer Research 56:2473,1996.
(§3) As for CDK2, either the extract from the insect cell infected both with baculovirus which expresses CDK2 gene and baculovirus which expresses cyclin A gene or the active enzyme which had been purified therefrom was used. CDK4 enzyme was also obtained from the insect cell infected both with baculovirus expressing CDK4 gene and baculovirus expressing cyclin D1 gene. As the substrate for CDK2, either histon H1 or Rb protein was used. Rb protein was also used as the substrate for CDK4.
(§4) Specifically the activities of enzymes CDK2/cyclin A and CDK4/cyclin D1 were determined according to the following procedure.
(§5) 100 ng of enzyme was reacted in a total 1000 μl of 20 mM Tris (pH 8.0), 100 mM NaCl, 10 mM MgCl2 buffer solution containing 20 μg of GST-RB protein, 100 μM of ATP and 5 μCi of P32-γ-ATP at 30° C. for 30 minutes. Then, the enzyme reaction was stopped by adding EDTA to a concentration of 20 mM. Subsequently, 30 μl of 50% glutathione bead (purchased from Pharmacia) was added to attach GST-RB to the bead, which was washed three times with 20mM Tris (pH 8.0), 100 mM NaCl, 10 mM EDTA solution, and then scintillation counting was carried out. To analyze the inhibitory activity of the compound, the inhibitor having a proper concentration was added to the enzyme reaction solution, and then the enzyme activity was measured according to the above method.
(§6) The inhibitory activity of the compound of formula (1) according to the present invention against CDK2 and CDK4 is represented as IC50 value. The compounds which are not included in Examples(compound 63, 64, 65 and 66) were synthesized and purified according to the same procedure as examples, and then IC50 thereof was measured.

CDK4/cyclin D1 = biological target: T2, CDK4/cyclin D1 (Homo sapiens, UniProt P11802); assay: Inhibitory activity against CDK4/cyclin D1 enzyme (GST-RB phosphorylation, P32-γ-ATP, scintillation counting); format: biochemical; conditions: CDK4/cyclin D1, 100 μM ATP, GST-RB substrate, 30° C. 30 minutes
T2 construct: made in house; host or cells: insect cells infected with baculoviruses
T2 sequence (P11802 whole entry, species assumed): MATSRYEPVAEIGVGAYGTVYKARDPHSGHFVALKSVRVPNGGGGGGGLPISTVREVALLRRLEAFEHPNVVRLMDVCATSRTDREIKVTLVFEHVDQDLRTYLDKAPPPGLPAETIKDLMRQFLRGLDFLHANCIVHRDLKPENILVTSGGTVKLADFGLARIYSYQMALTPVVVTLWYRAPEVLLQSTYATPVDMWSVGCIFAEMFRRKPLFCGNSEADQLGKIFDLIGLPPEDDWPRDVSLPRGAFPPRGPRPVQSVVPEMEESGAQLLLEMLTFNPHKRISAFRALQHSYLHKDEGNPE
T2 sequence (P24385 whole entry partner, species assumed): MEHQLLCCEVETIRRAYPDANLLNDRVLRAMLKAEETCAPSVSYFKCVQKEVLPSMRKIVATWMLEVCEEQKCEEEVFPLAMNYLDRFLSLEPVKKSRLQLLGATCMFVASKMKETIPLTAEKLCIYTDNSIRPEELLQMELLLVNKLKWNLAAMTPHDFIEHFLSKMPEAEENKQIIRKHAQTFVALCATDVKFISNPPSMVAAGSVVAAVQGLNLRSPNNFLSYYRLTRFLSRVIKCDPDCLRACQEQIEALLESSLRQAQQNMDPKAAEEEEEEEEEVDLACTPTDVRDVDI
Protocol: as §1, §2, §3, §4, §5, §6

in vivo = conditions: male, ICR, mouse, po
Protocol: The acute oral toxcities of the compounds 14, 17, 28, 39, 51 and 57 each of which is obtained in Examples 14, 17, 73,84, 96 and 102, respectively are investigated in the following.
Solutions containing a compound in several different concentrations from each other were prepared, and they were administered orally to ICR male mouse with a dose of 10 ml/kg.
After administration, lethality and symptoms for 7 days were observed, and LD50 (mg/kg) was calculated according to Litchfield-Wilcoxon' method.

Compound | IC50 (CDK2/cyclin A) | IC50 (CDK4/cyclin D1) | LD50 at 7 days (in vivo)
CC(=O)Nc1ccc2oc(-c3ccc(O)c(O)c3)c(O)c(=O)c2c1 [Compound 51, N-[2-(3,4-dihydroxyphenyl)-3-hydroxy-4-oxo-4H-chromen-6-yl]acetamide] | 5.6 µM | 5.6 µM | > 3000 mg/kg
O=C(NC(=O)c1ccccc1)Nc1ccc2oc(-c3ccc(O)c(O)c3)c(O)c(=O)c2c1 [Compound 57, N-benzoyl-N′-[2-(3,4-dihydroxyphenyl)-3-hydroxy-4-oxo-4H-chromen-6-yl]urea] | 22.4 µM | 18 µM | > 3000 mg/kg
